“Also recorded” adds a separate entry of the source.
Tests used:
[1] = tested on: Tgfbr2^fl/fl; Wnt1-Cre MEPM cells; experiment: Lipid droplet accumulation (Oil Red O staining) in primary MEPM cells; assay type: cell-based, mice
Experimental: Histological examination. Cryosections were stained with Oil Red O to detect lipid production. Prepared sections were washed three times in phosphate buffer saline (PBS) (each wash 5 min) and fixed in 4% formaldehyde in 0.1 M phosphate buffer for 1 h at room temperature. Sections were then incubated for 15 min in 60% isopropanol and stained for 15 min with a filtered solution of three parts of Oil Red O (saturated in isopropanol) and two parts of ddH2O. For the next step, slides were briefly rinsed in 60% isopropanol and washed thoroughly in ddH2O. Cells were counterstained in Mayers Hematoxylin Solution.
(§1) Primary MEPM cells. Primary MEPM cells were obtained from E13.5 embryos. Briefly, palatal shelves were dissected at E13.5, and trypsinized for 30 minutes at 37° C. in a CO2 incubator. After pipetting thoroughly, cells were cultured in Dulbecco's modified Eagle's medium containing 10% fetal bovine serum supplemented with penicillin, streptomycin, L-glutamate, sodium pyruvate, and nonessential amino acids.

[2] = tested on: Tgfbr2^fl/fl; Wnt1-Cre palate; experiment: Palatal shelf organ culture, BrdU-labeled nuclei (Example 2); assay type: cell-based, mice; conditions: ex vivo organ culture, 100 μM, 24 hours
Experimental: (§2) Histological examination. Hematoxylin and eosin staining and BrdU staining were performed as described previously. Immunohistochernical staining was performed as described previously. Antibodies used for immunohistochemistry were anti-β-spectrin rabbit polyclonal, and anti-Tgf-βRIII mouse monoclonal antibodies (Santa Cruz Biotechnology), anti-Tgf-β2 mouse monoclonal, and anti-14-3-3ζ/δ rabbit polyclonal antibodies (Abeam). Fluorescence images were obtained using a fluorescence microscope (Model IX71, Olympus).
Palatal shelf organ culture. Time-pregnant mice were sacrificed at E13.5. Genotyping was carried out as described above. The palatal shelves were microdissected and cultures in serum-less chemically defined medium as previously described. After 24 hours in culture treated with p38 MAPK inhibitor SB203580 (100 μM), and neutralizing antibody for Tgf-β2 (2 μg/ml) or Tgf-βRIII (2 μg/ml), palates were harvested, fixed in 4% paraformaldehyde/0.1 M phosphate buffer (pH 7.4) and processed.

p38 MAPK [3] = experiment: Immunoblot of p38 MAPK and 14-3-3ζ/δ phosphorylation in primary MEPM cells; assay type: cell-based, mice; conditions: Tgfbr2^fl/fl; Wnt1-Cre MEPM cells, 10 μM for 24 hours
Experimental: as §1

MEPM cells = experiment: Pulse-chase analysis of lipid droplet formation; assay type: cell-based, mice
Experimental: Pulse-chase analysis of lipid droplet formation. Chemical inducers, oleic acid for lipogenesis and isoproterenol for lipolysis, were added into culture medium to analyze lipid droplet formation. The number of lipid droplets per cell was counted. Oleic acid was added to the medium at 100 μM for 0, 60, and 120 min, and then washed out and changed to the medium with 100 μM isoproterenol for 10 and 30 min. Twenty cells were counted at each time point.

[4] = tested on: angiotensin-mediated Tgf-β signaling; conditions: patients of Marfan syndrome; cited from earlier work
p38 MAPK [5] = experiment: Immunoblotting of p38 MAPK activity in mice after telmisartan treatment; assay type: in vivo; conditions: Tgfbr2^fl/fl; Wnt1-Cre mice after telmisartan treatment
Experimental: Animals. To generate Tgfbr2^fl/fl; Wnt1-Cre mice, we mated Tgfbr2^fl/+; Wnt1-Cre with Tgfbr2^fl/fl mice. To generate Tgfbr2^fl/fl; Wnt1-Cre; Tgfb2^+/- mice, we mated Tgfbr2^fl/+; Wnt1-Cre; Tgfb2^+/- with Tgfbr2^fl/fl mice. To generate Tgfbr2^fl/fl; Wnt1-Cre; Alk5^fl/+ mice, we mated Tgfbr2^fl/+; Wnt1-Cre; Alk5^fl/fl with Tgfbr2^fl/fl; Alk5^fl/fl mice. Genotyping was performed using PCR primers as described previously^28, 29. Female Tgfbr2^fl/fl mice, which underwent timed matings with Tgfbr2^fl/+; Wnt1-Cre male mice, were treated with oral telmisartan (0.5 mg in 25 μl dimethyl sulfoxide per day by a feeding tube) or vehicle (25 μ[…] sulfoxide by a feeding tube) from 0.5 day post-coitum (E0.5). Therapy was continued throughout pregnancy. Immunological analysis. Immunoblots were performed as described previously. Antibodies used for immunoblotting were as follows: rabbit polyclonal antibodies against p38, JNK, and phospho-JNK (Cell Signaling Technology), 14-3-3ζ/δ, Smad2/3, […] (Abeam), phospho-14-3-3 (ABR), 14-3-3ε, and β-spectrin (Santa Cruz Biotechnology); rabbit monoclonal antibodies against phospho-p38, and phospho-Smad2 (Cell Signaling Technology); and mouse monoclonal antibodies against Smad4, and Tgf-βrIII (Santa Cruz Biotechnology), Tgf-β2 (Abeam), and GAPDH (Chemicon). MEPM cells were treated with or without p38 MAPK inhibitor SB203580 at 10 μM for 24 hours.

[6] = tested on: Tgfbr2^fl/fl and Tgfbr2^fl/fl; Wnt1-Cre embryos; experiment: Histological analyses of embryo organs (heart, kidney, liver) after feeding telmisartan to pregnant females; assay type: in vivo, mice
Experimental: (§3) Animals. To generate Tgfbr2^fl/fl; Wnt1-Cre mice, we mated Tgfbr2^fl/+; Wnt1-Cre with Tgfbr2^fl/fl mice. To generate Tgfbr2^fl/fl; Wnt1-Cre; Tgfb2^+/− mice, we mated Tgfbr2^fl/+; Wnt1-Cre; Tgfb2^+/− with Tgfbr2^fl/fl mice. To generate Tgfbr2^fl/fl; Wnt1-Cre; Alk5^fl/+ mice, we mated Tgfbr2^fl/+; Wnt1-Cre; Alk5^fl/fl with Tgfbr2^fl/fl; Alk5^fl/fl mice. Genotyping was performed using PCR primers as described previously^28, 29. Female Tgfbr2^fl/fl mice, which underwent timed matings with Tgfbr2^fl/+; Wnt1-Cre male mice, were treated with oral telmisartan (0.5 mg in 25 μl dimethyl sulfoxide per day by a feeding tube) or vehicle (25 μl dimethl sulfoxide by a feeding tube) from 0.5 day post-coitum (E0.5). Therapy was continued throughout pregnancy.
as §2, with “Immunohistochemical” for “Immunohistochernical”, “anti-Tgf-βrIII” for “anti-Tgf-βRIII”, “anti-14-3-3” for “anti-14-3-3ζ/δ”

[7] = tested on: Tgfbr2^fl/fl; Wnt1-Cre mice; experiment: Rescue of cleft palate in Tgfbr2^fl/fl; Wnt1-Cre embryos after feeding telmisartan to pregnant females; assay type: in vivo; conditions: for cleft palate (in words): Tgfbr2 mutant mice, treatment of pregnant mice
Experimental: as §3

[8] = tested on: Tgfbr2^fl/fl; Wnt1-Cre mice; experiment: Triacylglycerol level in mice after telmisartan treatment; assay type: in vivo; conditions: E18.5
Experimental: as §3
Triacylglycerol amount. Triacylglycerol amounts were measured by an enzymatic method using N-ethyl-N-(2-hydroxy-3-sulfopropyl)-3,5-dimethoxyaniline sodium salt according to the manufacturer's instructions (Wako). Data is expressed as mg per 100 mg protein.

[9] = tested on: palatal mesenchyme of E13.5 palatal explants; experiment: Palatal shelf organ culture with bead implantation or antibody, BrdU cell proliferation and fusion (Example 1); assay type: cell-based, mice
Experimental: Palatal shelf organ cultures and bead implantation. Timed-pregnant mice were sacrificed on postcoital day 13.5 (E13.5). Genotyping was carried out as previously described (Depew et al., 1999; Satokata and Maas, 1994). Paired secondary palatal shelves were microdissected and cultured in serumless, chemically-defined medium as previously described (Ito et al., 2003). For bead implantation, Affi-Gel blue agarose beads (BioRad) were soaked in proteins as previously described (Zhang et al., 2002). […] Shh N-terminal peptide (R & D 7 systems) was used at 1 mg/ml, anti-Shh antibody (Developmental Studies Hybridoma Bank) was used at 0.30 mg/ml, and BSA was used at 10 ng/ml. Neutralizing antibodies to Fgf7 (MAB251) and Mouse IgG1 (MAB002) (R & D Systems) were added to the culture medium at concentrations of 50 μg/ml.
(§4) Apoptosis and cell proliferation. Following treatment with […] proteinase K for 15 minutes at room temperature, apoptotic cells were assayed by the TUNEL procedure using the In Situ Cell Death Detection (fluorescein) kit (Roche Molecular Biochemicals) by following the manufacturer's protocol. Cell proliferation was scored by injection of BrdU (5-bromo-2′-deoxy-uridine, Sigma. 100 μg/g body weight) into pregnant females 1 hour before recovery of embryos. For palatal organ culture, BrdU was supplemented into culture medium at concentration of 100 μM for 2 hours before harvest. […]

[10] = tested on: MEE of E13.5 wild type palatal shelves; experiment: TUNEL apoptosis assay in palatal explants; assay type: cell-based, mice; conditions: Shh beads vs BSA beads
Experimental: (§5) Palatal shelf organ cultures and bead implantation. Timed-pregnant mice were sacrificed on postcoital day 13.5 (E13.5). Genotyping was carried out as previously described (Depew et al., 1999; Satokata and Maas, 1994). Paired secondary palatal shelves were microdissected and cultured in serumless, chemically-defined medium as previously described (Ito et al., 2003). For bead implantation, Affi-Gel blue agarose beads (BioRad) were soaked in proteins as previously described (Zhang et al., 2002). Tissues were harvested after 24 hours of culture and fixed in 4% paraformaldehyde for processing. Shh N-terminal peptide (R & D 7 systems) was used at 1 mg/ml, anti-Shh antibody (Developmental Studies Hybridoma Bank) was used at 0.30 mg/ml, and BSA was used at 10 ng/ml. Neutralizing antibodies to Fgf7 (MAB251) and Mouse IgG1 (MAB002) (R & D Systems) were added to the culture medium at concentrations of 50 μg/ml.
as §4, with “embryos.” for “embryos. For palatal organ culture, BrdU was supplemented into culture medium at concentration of 100 μM for 2 hours before harvest.”

Fgf7 expression = experiment: In situ hybridization of Fgf7 in treated palatal explants; assay type: cell-based, mice; conditions: Shh beads vs BSA beads
Experimental: as §5
(§6) In situ hybridization. Samples for whole-mount and section in situ hybridization were fixed in freshly made 4% paraformaldehyde/PBS. In situ hybridizations were performed as previously described (Xu et al., 2005). The following cDNAs were used to generate antisense riboprobes: a 1.2 kb fragment of mouse Msx1, a 900 bp mouse Dlx5, a 1.6 kb mouse Gli1, and 640 bp mouse Shh. […]

[11] = tested on: Shh expression in the palatal epithelium; experiment: In situ hybridization of Shh in treated palatal explants; assay type: cell-based, mice; conditions: Fgf7 beads
Experimental: as §5, §6

## C[S+]([O-])c1ccc(-c2nc(-c3ccc(F)cc3)c(-c3ccncc3)[nH]2)cc1 (centres unmarked) [SB203580, 4-[4-(4-fluorophenyl)-2-(4-methylsulfinylphenyl)-1H-imidazol-5-yl]pyridine]
[1]
  lipid droplet accumulation: failed to detect lipid droplet accumulation; also recorded: Lipid droplets did not accumulate
[2]
  cell proliferation defect (BrdU-labeled nuclei): rescued cell proliferation
p38 MAPK [3]
  phosphorylation of 14-3-3ζ/δ: inhibited
  phosphorylation of p38 (Mapk14): inhibited

## CC(C)NCC(O)c1ccc(O)c(O)c1 (centres unmarked) [isoproterenol]
MEPM cells; Tgfbr2^fl/fl MEPM cells, after switch to 100 μM isoproterenol
  number of lipid droplets: decreased immediately
MEPM cells; Tgfbr2^fl/fl, Wnt1-Cre MEPM cells, after switch to 100 μM isoproterenol
  lipid droplet number: remained high

## CCCCc1nc(Cl)c(CO)n1Cc1ccc(-c2ccccc2-c2nn[nH]n2)cc1 [losartan]
[4]
  enlarged aorta: prevents the enlarged aorta

## CCCCCCCC/C=C\CCCCCCCC(=O)O [oleic acid]
MEPM cells; MEPM cells of both Tgfbr2^fl/fl and Tgfbr2^fl/fl, Wnt1-Cre mice, oleic acid 100 μM
  number of lipid droplets: increased

## CCCc1nc2c(C)cc(-c3nc4ccccc4n3C)cc2n1Cc1ccc(-c2ccccc2C(=O)O)cc1 [telmisartan, 2-(4-{[4-methyl-6-(1-methyl-1H-1,3-benzodiazol-2-yl)-2-propyl-1H-1,3-benzodiazol-1-yl]methyl}phenyl)benzoic acid]
p38 MAPK [5]
  up-regulated p38 MAPK activity: restored to normal
[6]; Tgfbr2^fl/fl and Tgfbr2^fl/fl, Wnt1-Cre embryos
  effect on kidney or liver histology: does not appear to affect kidney or liver
[6]; Tgfbr2^fl/fl, Wnt1-Cre mice after telmisartan
  heart defect: does not rescue the heart defect
[6]; embryos after telmisartan to pregnant females
  side-effects in other organs: without obvious side-effects in other organs
[7]; Tgfbr2^fl/fl, Wnt1-Cre mice following telmisartan treatment
  cell proliferation defect: restored cell proliferation defect
[7]
  cleft palate (in words): prevents the cleft palate
[7]; listed as Telmisartan
  cleft palate (in words): rescue cleft palate defects
[7]; oral telmisartan 0.5 mg per day to pregnant females from E0.5
  cleft palate rescued, number of Tgfbr2^fl/fl; Wnt1-Cre mice: 5/18
[8]
  increased triacylglycerol level: restored to normal

## Shh: Shh N-terminal peptide (R & D systems) used at 1 mg/ml, soaked into Affi-Gel blue agarose beads
[9]; E13.5 wild type palatal explants, Shh beads vs BSA beads
  palatal mesenchyme cell proliferation (BrdU): enhanced
[9]; Shh beads, two days of culture
  palatal fusion of explants: able to fuse
[10]
  apoptosis in the MEE (TUNEL): did not affect apoptosis
Fgf7 expression
  Fgf7 expression: repressed

B1: Fgf7: Fgf7 protein on beads placed into E13.5 palatal shelves in vitro (protein)
chain: CNDMSPEQTATSVNCSSPERHTRSYDYMEGGDIRVRRLFCRTQWYLRIDKRGKVKGTQEMKNSYNIMEIRTVAVGIVAIKGVESEYYLAMNKEGKLYAKKECNEDCNFKELILENHYNTYASAKWTHSGGEMFVALNQKGIPVKGKKTKKEQKTAHFLPMAIT
[11]; Dlx5−/− samples
  Shh expression in the palatal epithelium: inhibit Shh expression
[11]; E13.5 palatal shelves, one day of culture, compared to BSA
  Shh expression in the palatal epithelium: dramatic reduction
